Experimental findings from patent US11130780B2, “Inhibitors of growth factor activation enzymes” (Washington University, priority 2015, dated 2021) are described below.

Holding throughout (format): biochemical
In test [1] the target is T1, hepsin (Homo sapiens, UniProt P05981).
T1 construct: purchased R&D Systems 4776-SE-010
The test is described as follows: Fluorescent kinetic enzyme inhibitor assay of hepsin. The following applies: Table 9.1; Fluorogenic Assay; read-out: Hepsin Ki. The procedure:
Inhibitors (11-pt serial dilutions, 0-20 μM final concentration in reaction) were serially diluted in DMSO (2% DMSO final concentration) and then mixed with either recombinant serine protease domain of HGFA [Z. Han, P. K. Harris, D. E. Jones, R. Chugani, T. Kim, M. Agarwal, W. Shen, S. A. Wildman, J. W. Janetka, Acs Med Chem Lett 2014, 5, 1219-1224], matriptase (Charles Craik, UCSF) or hepsin* (#4776-SE-010, R&D Systems, Minneapolis, Minn.) in black 384 well plates (Corning #3575. Corning, N.Y.). […] The final substrate concentrations for all assays were at the Km for the respective enzymes. Changes in fluorescence (excitation at 380 nm and emission at 460 nm) were measured at room temperature over time in a Biotek Synergy 2 plate reader (Winnoski, Vt.). Using GraphPad Prism version 6.04 software program, (GraphPad Software, San Diego, Calif., www.graphpad.com), a four parameter curve fit was used to determine the inhibitor IC50s from a plot of the mean reaction velocity versus the inhibitor concentration. The IC50 values represent the average of three separate experimental determinations.

Test [2] has as its target T1, hepsin. The test is described as follows: P4-P2 substrate specificity using HyCoSuL, hepsin. Details: concentration or dose not given beside the values. The following applies: HyCoSuL substrate library; for P2 Position % Activity Hepsin: amino acid fixed at P2 position; for P3 Position % Activity Hepsin: amino acid fixed at P3 position; for P4 Position % Activity Hepsin: amino acid fixed at P4 position. The method, then: (§1) Each of the P4, P3, and P2 sublibraries were screened at the 100 μM concentration with hepsin either HGFA in a 100 μL final volume per well (99 μL of protease in buffer+1 μL of 10 mM substrates mixture). The total time of the assay was 30 minutes, however only linear portions of the progress curve (5-15 minutes) were used for velocity (RFU/s) calculations. Each sublibrary screening was repeated at least 3-times and the average value calculated from each measurement was used to create the substrate specificity matrix—the best recognized amino acid in each position was set to 100%, and other amino acids were adjusted accordingly.
Recombinant human hepsin (10 μg in 20 uL, 4776-SE-010, R&D Systems) was added to the 100 μL of activation buffer (0.1 M Tris, 0.15 M NaCl, 0.01 M CaCl2, 0.05% TRITON-X, pH=8.0) and incubated at 37° C. for 24 hours (hepsin concentration in activation buffer 2 μM). Once activated hepsin was diluted in assay buffer (0.05 M Tris, pH=9.0) to the final concentration of 4 nM and incubated at 37° C. for 15 minutes before added to a substrate.

For another test, the target named is T2, HGFA (Homo sapiens, UniProt Q04756).
T2 sequence (Q04756 408-655 limits assumed): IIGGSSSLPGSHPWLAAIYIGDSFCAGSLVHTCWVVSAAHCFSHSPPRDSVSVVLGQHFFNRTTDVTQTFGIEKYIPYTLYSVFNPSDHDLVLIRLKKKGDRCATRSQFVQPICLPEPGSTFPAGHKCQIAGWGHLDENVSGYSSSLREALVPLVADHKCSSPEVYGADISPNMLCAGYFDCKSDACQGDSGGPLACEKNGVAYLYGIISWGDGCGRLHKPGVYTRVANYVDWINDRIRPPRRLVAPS
T2 sequence (Q04756 373-407 partner limits assumed): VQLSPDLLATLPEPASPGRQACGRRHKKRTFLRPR
The experiment in a line: P4-P2 substrate specificity using HyCoSuL, HGFA. Details: P3 Position % Activity HGFA / P2 Position % Activity HGFA: concentration or dose not given beside the values; P4 Position % Activity HGFA: tested at 100 µM. As to conditions: HyCoSuL substrate library; for P2 Position % Activity HGFA: amino acid fixed at P2 position; for P3 Position % Activity HGFA: amino acid fixed at P3 position; for P4 Position % Activity HGFA: amino acid fixed at P4 position. The procedure:
as §1
HFGA enzyme was diluted in the assay buffer (0.15 M NaCl, 0.025 M Tris, 0.005 M CaCl2, pH=8.0) to the final concentration of 10-20 nM (depending of sublibrary) and incubated at 25° C. for 30 minutes before added to a substrate.

Several values for one entry are separate records, joined by “and”; a condition that tells them apart may be missing. Equal values may be shown once.

T1 sequence (P05981 163-417 limits assumed): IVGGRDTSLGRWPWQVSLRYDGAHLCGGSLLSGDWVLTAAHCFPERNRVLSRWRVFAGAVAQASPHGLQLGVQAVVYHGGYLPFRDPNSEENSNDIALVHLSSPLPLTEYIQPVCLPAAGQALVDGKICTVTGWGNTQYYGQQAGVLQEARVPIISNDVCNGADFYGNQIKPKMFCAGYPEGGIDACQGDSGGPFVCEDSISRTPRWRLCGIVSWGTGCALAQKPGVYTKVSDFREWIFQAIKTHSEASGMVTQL
T1 sequence (P05981 45-162 partner limits assumed): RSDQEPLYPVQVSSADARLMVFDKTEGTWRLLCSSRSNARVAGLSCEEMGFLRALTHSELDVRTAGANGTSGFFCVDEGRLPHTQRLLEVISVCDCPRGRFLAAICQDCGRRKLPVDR

As usually defined, the Ki is a measure of affinity in units of concentration, obtained from inhibition or displacement. `CC(C)c1cc(C(C)C)c(S(=O)(=O)N[C@@H](Cc2cccc(C(=N)N)c2)C(=O)N2CCN(C(=O)C3CCNCC3)CC2)c(C(C)C)c1` [Compound 26]: at hepsin [1], the Ki is 8.14 µM and 8.13 µM.

Regarding D-Arg, on hepsin [2], the “P2 Position % Activity Hepsin” value turned out to be 0.00%, the “P3 Position % Activity Hepsin” value is listed as 66.08% and the “P4 Position % Activity Hepsin” value was determined as 44.37%. In addition, at HGFA, the “P2 Position % Activity HGFA” value was found to be 0.00%, the “P3 Position % Activity HGFA” value is 29.10% and the “P4 Position % Activity HGFA” value is recorded as 23.20%.

Regarding D-Val, at hepsin [2], the “P2 Position % Activity Hepsin” value came to 0.00%, the “P3 Position % Activity Hepsin” value is reported as 27.04% and the “P4 Position % Activity Hepsin” value is reported as 22.58%. Moreover, at HGFA, the “P2 Position % Activity HGFA” value came to 0.00%, the “P3 Position % Activity HGFA” value was determined as 5.76% and the “P4 Position % Activity HGFA” value came out at 8.25%.

In the case of D-His, at hepsin [2], the “P2 Position % Activity Hepsin” value was found to be 0.00%, the “P3 Position % Activity Hepsin” value came out at 40.09% and the “P4 Position % Activity Hepsin” value is given as 19.33%. Moreover, on HGFA, the “P2 Position % Activity HGFA” value was 0.00%, the “P3 Position % Activity HGFA” value is 11.09% and the “P4 Position % Activity HGFA” value is reported as 7.79%.

For L-Pip, on hepsin [2], the “P2 Position % Activity Hepsin” value was 10.66%, the “P3 Position % Activity Hepsin” value was found to be 1.64% and the “P4 Position % Activity Hepsin” value came out at 34.68%. Moreover, at HGFA, the “P2 Position % Activity HGFA” value is recorded as 1.75%, the “P3 Position % Activity HGFA” value worked out at 0.83% and the “P4 Position % Activity HGFA” value was found to be 9.25%.

Take β-Ala: at hepsin [2], the “P2 Position % Activity Hepsin” value was found to be 0.00%, the “P3 Position % Activity Hepsin” value worked out at 22.78% and the “P4 Position % Activity Hepsin” value is reported as 30.74%. On HGFA, the “P2 Position % Activity HGFA” value is given as 0.24%, the “P3 Position % Activity HGFA” value is 15.95% and the “P4 Position % Activity HGFA” value turned out to be 10.07%.
